The results in this text go back to PubChem BioAssay (NCI).

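How tested: cells in 96-well plates exposed to compound for 48 hours at five concentrations. Abbreviation: GI50, concentration required for 50% inhibition of growth. TGI: total growth inhibition.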

Holding throughout (experiment): inhibition of tumour cell growth, NCI panel, 48 h
Test [1] has as its system SN12C renal.
Test [2] concerns SF-539 CNS.
Test [3] has as its system RPMI-8226 leukemia.
The test system of test [4] is IGROV1 ovarian.
In test [5] the test system is NCI-H460 lung.
Test [6] deals with UO-31 renal.
Test [7] deals with SR leukemia.
The test system of test [8] is HOP-92 NSCLC.
The subject of test [9] is KM12 colon.

For the compound `CCN(CC)CC(=O)NC1c2ccccc2Oc2c(C)cccc21` (centres undefined), the TGI in test [1], in test [2], in test [3], in test [4], in test [5] and in test [6] was more than 100 µM throughout. In test [7], the TGI is more than 100 µM.
Consider `CN(C)CCn1cnc2ncccc2c1=O`, for which the TGI in test [1], in [8], in test [2], in test [9], in test [4] and in test [5] was more than 100 µM each time. Further, the TGI in [6] and in test [7] was more than 100 µM in each case.
With `C=C1C(=O)O[C@H]2[C@H]1CC/C(Cn1cc(-c3cccc(Cl)c3)nn1)=C\CC[C@@]1(C)O[C@@H]21`, the GI50 is 1.4 µM in [1]; 0.257 µM in test [8]; 0.258 µM in test [2]; 0.506 µM in test [3]; 1.78 µM in test [9]; 0.73 µM in test [4]. In addition, the GI50 is 2.13 µM in test [5], 1.08 µM in test [6] and 0.231 µM in [7]. Besides, the TGI in test [1] is 3.35 µM; in [8], 0.842 µM; in test [2], 0.791 µM; in [3] it was 3.36 µM; in [9], 3.74 µM; in test [4], 2.41 µM. The TGI amounted to 4.52 µM in test [5], 2.31 µM in test [6] and 0.886 µM in [7].
As to `CC1=C(C(=O)NCc2ccccc2)C(c2ccccc2C)C(C(=O)NCc2ccccc2)=C(C)N1`, the TGI in test [1] is more than 63 µM; in [8], more than 86.8 µM; in [2], 48.8 µM; in [3] it was more than 100 µM; in [9], 58.8 µM; in test [4], more than 72.3 µM. Moreover, the TGI in test [5] was 45.9 µM; in [6], more than 93.3 µM; in test [7], 81.1 µM.
In the case of `O=C(CO[N+](=O)[O-])OC/C=C/c1ccccc1`, the TGI in test [1], in test [8], in test [2], in test [3], in test [9] and in [4] was more than 100 µM throughout. Also, the TGI in test [5], in [6] and in [7] was more than 100 µM each time.
As to `Cc1ccc(/C=C/c2c(C(=O)/C=C/c3ccc(Cl)cc3)c(C)nc3ccccc23)cc1`, the GI50 was 1.62 µM in test [8]; 1.81 µM in [2]; 2.13 µM in test [3]; 1.87 µM in test [9]; 1.03 µM in test [4]; 1.73 µM in [5]. The GI50 in test [6] is 1.16 µM; in test [7], 1.92 µM. The TGI is 3.53 µM in test [8]; 3.3 µM in test [2]; 5.95 µM in [3]; 3.77 µM in test [9]; 2.38 µM in test [4]; 3.49 µM in test [5]. Moreover, the TGI in [6] was 2.38 µM; in test [7] it was more than 100 µM.
`Clc1ccc(OCc2nnc3n2N=C(c2ccc(Br)cc2)CS3)cc1`: the TGI was more than 100 µM in [1]; 41 µM in test [8]; 24.5 µM in [2]; more than 100 µM in test [3]; more than 100 µM in [9]; 82 µM in [5]. The TGI in [6] was 19.6 µM; in test [7], more than 100 µM.
`COc1ccc(S(=O)(=O)N[C@H](C(=O)O)c2ccccc2)cc1`: the TGI in test [1], in test [2], in [3], in [9], in test [4] and in test [5] was more than 100 µM in each case. The same compound returned a TGI in [6] of more than 100 µM.
As to `CCCCCCCCCCCCCCCCc1c(C(=O)OC)nc(NN)[nH]c1=O`, the TGI in [1], in test [8], in [2], in test [3], in test [9] and in [4] was more than 50 µM in each case. In addition, the TGI in test [5] and in test [6] was more than 50 µM each time.
On to `COc1cc(-c2ccc(NC(=O)SCCC(=O)O)cc2OC)ccc1NC(=O)SCCC(=O)O`, for which the TGI in test [1], in test [2], in test [3], in test [9], in test [5] and in [6] was more than 100 µM in each case. Besides, the TGI in [7] was more than 100 µM.
As for `COC1[C@H](NC(=O)OC(C)(C)C)C(=O)N1Cc1ccccc1` (some centres undefined), the TGI in test [1], in test [8], in test [2], in test [3], in test [9] and in test [4] was more than 100 µM in each case. The TGI in [5] and in test [6] was more than 100 µM throughout.
In the case of `CCCCCCCCCCSC(=O)NC`, the TGI in [1] was 74.4 µM; in test [8] it was 57.8 µM; in [2], more than 100 µM; in [3] it was 48.8 µM; in test [9], more than 100 µM; in [4], more than 100 µM. Besides, the TGI in [5] and in test [6] was more than 100 µM each time.
Take `CCOc1ccc(OCC)c([P+](c2ccccc2)(c2ccccc2)c2ccccc2)c1`: the TGI in test [1] stood at 5.61 µM; in [8], 0.95 µM; in test [2], 8.77 µM; in test [3], 2.36 µM; in test [9], 10.1 µM; in [4], 13.3 µM. Moreover, the TGI in test [5] is 11.6 µM.
For the compound `CCOC(=O)C(NO)C(Sc1ccccc1)c1ccc(OC)cc1` (centres undefined), the TGI in test [1], in test [8], in test [2], in [3], in test [9] and in test [4] was more than 100 µM throughout. Moreover, the TGI in test [5], in test [6] and in test [7] was more than 100 µM throughout.
